What all share (type): in vivo
Assay [1] concerns AN3CA (human endometrial cancer) xenograft. Nature of the assay: Antitumor effects in AN3CA endometrial cancer xenograft model in mice as monotherapy. Particulars: 180 μg/kg intravenously on Day 1 and Day 8. How it is done:
A human endometrial cancer cell line AN3CA, which had been cultured in an E-MEM containing 10% FBS, and penicillin-streptomycin, was adjusted to a concentration of 1.4×10^8 cells/mL with Hanks' Balanced Salt Solution to prepare a cell suspension, and the suspension was mixed with Geltrex® (Thermo Fisher Scientific Inc., #A1413202) in a ratio of 1:1 to prepare a cell suspension in a concentration of 7×10^7 cells/mL. The cell suspension was inoculated in a volume of 100 μL into a subcutaneous part of a right flank of nude mice, 6 weeks of ages (CAnN.Cg-Foxnlnu/CrlCrlj, female, Charles River Laboratories Japan Inc.). Twelve days after cell inoculation (Day 1), the shortest diameter and the longest diameter of a tumor in each mouse were measured by using an electronic digital caliper (Digimatic™ caliper, Mitutoyo Corporation), so as to calculate the volume of the tumor in accordance with the following calculation formulae: Tumor volume (mm^3)=Longest diameter (mm)×Shortest diameter (mm)×Shortest diameter (mm)/2 Relative tumor volume (RTV)=Tumor volume (day X)/Tumor volume (the first day)
On the basis of the volumes of tumors obtained on Day 1, the mice were grouped such that averages of the tumor volumes were substantially equal among the groups. The experiment was conducted on groups each consisting of five mice. […]

The test system of assay [2] is KPL-4 subcutaneous xenograft. Kind of assay: Antitumor effects in the KPL-4 xenograft model in mice as monotherapy. How it is done:
A human HER-2 positive breast cancer cell line KPL-4, which had been cultured in a DMEM containing 10% FBS, and penicillin-streptomycin, was adjusted to a concentration of 1×10^8 cells/mL with Hanks' Balanced Salt Solution to prepare a cell suspension. The cell suspension was inoculated in a volume of 100 μL into a subcutaneous part of a right flank of nude mice, 8 weeks of ages (CAnN.Cg-Foxnlnu/CrlCrlj, female, Charles River Laboratories Japan Inc.). Eleven days after cell inoculation (Day 1), the shortest diameter and the longest diameter of a tumor in each mouse were measured by using an electronic digital caliper (Digimatic™ caliper, Mitutoyo Corporation), so as to calculate the volume of the tumor in accordance with the following calculation formulae: Tumor volume (mm^3)=Longest diameter (mm)×Shortest diameter (mm)×Shortest diameter (mm)/2 Relative tumor volume (RTV)=Tumor volume (day X)/Tumor volume (the first day) Relative body weight (RBW)=Body weight (day X)/Body weight (the first day)
On the basis of the volumes of tumors obtained on Day 1, the mice were grouped such that averages of the tumor volumes were substantially equal among the groups. The experiment was conducted on groups each consisting of six mice. The test compound was dissolved in DMSO and a solution was stored in the freezer before use. Immediately before the administration, the stock solution was diluted with saline. The test compound in saline was intravenously once-weekly administered at 20 μg/kg, 60 μg/kg, or 180 μg/kg for 2 weeks (on Day 1 and Day 8).

Assay [3] relates to CTG-2041 (human angiosarcoma) tumor fragments. Nature of the assay: Antitumor effects in CTG-2041 soft tissue sarcoma xenograft model in mice as monotherapy. The settings on record: 100 μg/kg intravenously on Day 1 and Day 8. An excerpt: Tumor fragments of human angiosarcoma CTG-2041 were implanted s.c. in the left flank of female mice. Tumor growth was monitored twice a week using digital caliper, so as to calculate the volume of the tumor in accordance with the following calculation formula: Tumor volume (mm^3)=Longest diameter (mm)×Shortest diameter (mm)×Shortest diameter (mm)/2 Relative tumor volume (RTV)=Tumor volume (day X)/Tumor volume (the first day)
When the volume of tumors reached approximately 200 mm^3, animals are matched by tumor volume into treatment or control groups and dosing initiated on Day 1. Each group was consisted with five mice. Compound (1) was dissolved in DMSO and a solution was stored in the freezer before use. Compound (1) (100 μg/kg) diluted in saline and intravenously injected on Day 1 and Day 8.

This note sets out measurements from US11725015B2, “Macrocyclic compound and uses thereof” (President and Fellows of Harvard College, priority 2017, dated 2023).

Consider `C=C1C[C@@H]2CC[C@@]34C[C@H]5O[C@H]6[C@@H](O3)[C@H]3O[C@H](CC[C@@H]3O[C@H]6C5O4)CC(=O)O[C@@H]3[C@@H](C)[C@@H]4O[C@@H]5C[C@]6(C[C@@H]7O[C@]8(C[C@H](C)[C@@H]9O[C@H](CN)[C@H](O)C[C@@H]9O8)C[C@H](C)[C@@H]7O6)O[C@@H]5C[C@@H]4O[C@H]3C[C@H]3O[C@@H](CC[C@@H]1O2)C[C@@H](C)C3=C` [Compound (1)], for which the antitumor activity result in assay [1] and in assay [3] was “tumor regression” each time. Also, the antitumor effect entry in assay [2] (60 μg/kg intravenously on Day 1 and Day 8) is reported as “tumor regression was observed”; in assay [2] (180 μg/kg intravenously on Day 1 and Day 8), “tumor regression was observed”. In addition, the “eradication of xenograft tumors” value in assay [2] (180 μg/kg, on Day 15) is “completely eradicated the xenograft tumors in all mice”.
